Reference: US20230157952A1, “METHOD FOR IMPROVING THE STABILITY OF A PHARMACEUTICAL COMPOSITION COMPRISING A HIGH PENETRATION DRUG, AND THE PHARMACEUTICAL COMPOSITION OBTAINED THEREFROM” (Techfields Inc., priority 2020, published 2023)

Experiments:
[1] = Effect of temperature (and pH) on the stability of the solution (purity); format: physicochemical; details: 7% solution in water
[2] = Effect of concentration on the stability of the solution (purity over time); details: in water at 25° C.

## CCN(CC)CCOC(=O)CCc1ccc2cc(OC)ccc2c1.Cl [2-(diethylamino)ethyl 3-(6-methoxy-2-naphthyl)propionate•HCl]
[1]
  Stability of the solution at a temperature higher than 40° C. and a pH lower than 3 or greater than 6: not stable
[2]; 0.01 wt %
  Purity at Day 3: 84.7%
  Purity at Day 7: 73.9%
  Purity at Day 14: 62.3%
  Purity at Day 21: 53.9%
  Purity at Day 28: 45.9%
  Purity at hr 0: 97.7%
[2]; 0.1 wt %
  Purity at Day 3: 96.7%
  Purity at Day 7: 95.5%
  Purity at Day 14: 91.1%
  Purity at Day 21: 87.2%
  Purity at Day 28: 83.8%
  Purity at hr 0: 97.9%
[2]; 1 wt %
  Purity at Day 3: 97.0%
  Purity at Day 7: 96.0%
  Purity at Day 14: 94.0%
  Purity at Day 21: 92.3%
  Purity at Day 28: 90.9%
  Purity at hr 0: 98.1%
[2]; 3 wt %
  Purity at Day 3: 97.7%
  Purity at Day 7: 97.0%
  Purity at Day 14: 96.0%
  Purity at Day 21: 94.8%
  Purity at Day 28: 93.8%
  Purity at hr 0: 98.3%
[2]; 5 wt %
  Purity at Day 3: 98.2%
  Purity at Day 7: 98.0%
  Purity at Day 14: 97.6%
  Purity at Day 21: 97.0%
  Purity at Day 28: 96.3%
  Purity at hr 0: 98.4%
[2]; 7 wt %
  Purity at Day 3: 98.4%
  Purity at Day 7: 98.2%
  Purity at Day 14: 98.0%
  Purity at Day 21: 97.8%
  Purity at Day 28: 97.4%
  Purity at hr 0: 98.5%
[2]; 8 wt %
  Purity at Day 3: 98.4%
  Purity at Day 7: 98.3%
  Purity at Day 14: 98.0%
  Purity at Day 21: 97.9%
  Purity at Day 28: 97.5%
  Purity at hr 0: 98.4%
[2]; 10 wt %
  Purity at Day 3: 98.4%
  Purity at Day 7: 98.3%
  Purity at Day 14: 98.2%
  Purity at Day 21: 98.0%
  Purity at Day 28: 97.5%
  Purity at hr 0: 98.5%
[2]; 15 wt %
  Purity at Day 3: 98.4%
  Purity at Day 7: 98.2%
  Purity at Day 14: 98.1%
  Purity at Day 21: 98.0%
  Purity at Day 28: 97.6%
  Purity at hr 0: 98.5%
[2]; 20 wt %
  Purity at Day 3: 98.4%
  Purity at Day 7: 98.2%
  Purity at Day 14: 98.2%
  Purity at Day 21: 98.1%
  Purity at Day 28: 97.5%
  Purity at hr 0: 98.4%
[2]; 30 wt %
  Purity at Day 3: 98.4%
  Purity at Day 7: 98.3%
  Purity at Day 14: 98.1%
  Purity at Day 21: 98.1%
  Purity at Day 28: 97.5%
  Purity at hr 0: 98.5%
[2]; 50 wt %
  Purity at Day 3: 98.5%
  Purity at Day 7: 98.3%
  Purity at Day 14: 98.1%
  Purity at Day 21: 97.8%
  Purity at Day 28: 97.6%
  Purity at hr 0: 98.5%
[2]
  Stability when the concentration is 0.1% or lower: not stable

## CCN(CC)CCOC(=O)Cc1c(C)n(C(=O)c2ccc(Cl)cc2)c2ccc(OC)cc12.Cl [2-(diethylamino)ethyl 1-(4-chlorobenzoyl)-5-methoxy-2-methyl-1H-indole-3-acetate•HCl]
[1]
  Stability of the solution at a temperature higher than 40° C. and a pH lower than 3 or greater than 6: not stable
[2]; 0.01 wt %
  Purity at Day 3: 84.2%
  Purity at Day 7: 72.9%
  Purity at Day 14: 61.3%
  Purity at Day 21: 53.4%
  Purity at Day 28: 45.5%
  Purity at hr 0: 98.0%
[2]; 0.1 wt %
  Purity at Day 3: 96.3%
  Purity at Day 7: 93.6%
  Purity at Day 14: 88.9%
  Purity at Day 21: 84.7%
  Purity at Day 28: 78.7%
  Purity at hr 0: 98.2%
[2]; 1 wt %
  Purity at Day 3: 97.2%
  Purity at Day 7: 96.1%
  Purity at Day 14: 94.0%
  Purity at Day 21: 92.4%
  Purity at Day 28: 91.2%
  Purity at hr 0: 98.3%
[2]; 3 wt %
  Purity at Day 3: 97.8%
  Purity at Day 7: 97.2%
  Purity at Day 14: 96.0%
  Purity at Day 21: 95.0%
  Purity at Day 28: 94.1%
  Purity at hr 0: 98.4%
[2]; 5 wt %
  Purity at Day 3: 98.3%
  Purity at Day 7: 98.0%
  Purity at Day 14: 97.7%
  Purity at Day 21: 97.1%
  Purity at Day 28: 96.5%
  Purity at hr 0: 98.5%
[2]; 7 wt %
  Purity at Day 3: 98.4%
  Purity at Day 7: 98.2%
  Purity at Day 14: 98.0%
  Purity at Day 21: 97.7%
  Purity at Day 28: 97.4%
  Purity at hr 0: 98.5%
[2]; 8 wt %
  Purity at Day 3: 98.4%
  Purity at Day 7: 98.3%
  Purity at Day 14: 98.0%
  Purity at Day 21: 97.8%
  Purity at Day 28: 97.4%
  Purity at hr 0: 98.6%
[2]; 10 wt %
  Purity at Day 3: 98.4%
  Purity at Day 7: 98.3%
  Purity at Day 14: 98.2%
  Purity at Day 21: 98.0%
  Purity at Day 28: 97.6%
  Purity at hr 0: 98.5%
[2]; 15 wt %
  Purity at Day 3: 98.4%
  Purity at Day 7: 98.2%
  Purity at Day 14: 98.1%
  Purity at Day 21: 98.0%
  Purity at Day 28: 97.5%
  Purity at hr 0: 98.5%
[2]; 20 wt %
  Purity at Day 3: 98.4%
  Purity at Day 7: 98.5%
  Purity at Day 14: 98.2%
  Purity at Day 21: 98.1%
  Purity at Day 28: 97.7%
  Purity at hr 0: 98.6%
[2]; 30 wt %
  Purity at Day 3: 98.5%
  Purity at Day 7: 98.3%
  Purity at Day 14: 98.0%
  Purity at Day 21: 98.1%
  Purity at Day 28: 97.5%
  Purity at hr 0: 98.5%
[2]; 50 wt %
  Purity at Day 3: 98.5%
  Purity at Day 7: 98.4%
  Purity at Day 14: 98.1%
  Purity at Day 21: 97.9%
  Purity at Day 28: 97.6%
  Purity at hr 0: 98.6%
[2]
  Stability when the concentration is 0.1% or lower: not stable
